Data reported in US9695155B2, “Herbicidal substituted pyrimidinyloxy benzene compounds” (E. I. DU PONT DE NEMOURS AND COMPANY, priority 2013, dated 2017).

Assays:
rice = experiment: Test C flooded paddy test; format: in vivo, Oryza sativa; details: Flood, scale 0 to 100 (0 no effect, 100 complete control), 13 to 15 days
Procedure, shortened: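 Compound was added to standing water 3 cm above soil, flood maintained, and plants held in a greenhouse before visual scoring against controls at 13 to 15 days.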

ragweed = experiment: Test A preemergence; format: in vivo, Ambrosia elatior
Procedure, shortened: (§1)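 Visual 0–100 rating (100 = complete control) taken about 10 d post-treatment relative to untreated checks. Preemergence: directed soil spray on sown loam/sand pots. Postemergence: seedlings 2–10 cm, 1–2 leaf. Non-phytotoxic solvent formulation with surfactant.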

Italian ryegrass [1] = experiment: Test A postemergence; format: in vivo, Lolium multiflorum
Procedure, shortened: as §1

Italian ryegrass [2] = experiment: Test A preemergence; format: in vivo, Lolium multiflorum
Procedure, shortened: as §1

galium = experiment: Test A postemergence; format: in vivo, Galium aparine
Procedure, shortened: as §1

kochia = experiment: Test A postemergence; format: in vivo, Kochia scoparia
Procedure, shortened: as §1

[3] = 125 g ai/ha, 0 to 100 scale where 0 is no effect and 100 is complete control
[4] = 500 g ai/ha, 0 to 100 scale, 0 no effect, 100 complete control, approx. 10 days
[5] = 500 g ai/ha, 0 to 100 scale where 0 is no effect and 100 is complete control
[6] = 31 g ai/ha, 0 to 100 scale, 0 no effect, 100 complete control
[7] = 1000 g ai/ha, 0 to 100 scale, 0 no effect, 100 complete control, approx. 10 days
[8] = 1000 g ai/ha, 0 to 100 scale, 0 no effect, 100 complete control
[9] = 31 g ai/ha, 0 to 100 scale where 0 is no effect and 100 is complete control, visual, approximately 10 days
[10] = 125 g ai/ha, 0 to 100 scale, 0 no effect, 100 complete control

Clc1cnc(Oc2ccccc2-n2cc(Cl)cn2)nc1 [Compound 3]
Plant response rating, Rice (rice; 31 g ai/ha): 0
Plant response rating, Rice (rice; 62 g ai/ha): 0
Plant response rating, Rice (rice; 125 g ai/ha): 0
Plant response rating, Rice (rice; 250 g ai/ha): 0

N#Cc1cccc(Oc2ncc(F)cn2)c1-n1cc(Br)cn1 [Compound 62]
Plant response rating, Rice (rice; 31 g ai/ha): 15
Plant response rating, Rice (rice; 62 g ai/ha): 15
Plant response rating, Rice (rice; 125 g ai/ha): 15
Plant response rating, Rice (rice; 250 g ai/ha): 25

Clc1cnc(Oc2cccc(Br)c2-n2cc(Br)cn2)nc1 [Compound 65]
Plant response rating, Rice (rice; 31 g ai/ha): 0
Plant response rating, Rice (rice; 62 g ai/ha): 0
Plant response rating, Rice (rice; 125 g ai/ha): 0
Plant response rating, Rice (rice; 250 g ai/ha): 0

FCc1cccc(Oc2ncc(Cl)cn2)c1-n1cc(Br)cn1 [Compound 83]
Plant response rating, Ragweed (ragweed; [3]): 20
Ragweed plant response rating (ragweed; [4]): 50
Plant response rating, Ryegrass, Italian (Italian ryegrass [1]; [3]): 50
Plant response rating, Ryegrass, Italian (Italian ryegrass [1]; [5]): 80
Plant response rating, Ryegrass, Italian (Italian ryegrass [2]; [3]): 50
Ryegrass, Italian plant response rating (Italian ryegrass [2]; [4]): 60
Plant response rating, Galium (galium; [3]): 100
Plant response rating, Galium (galium; [5]): 100
Plant response rating, Kochia (kochia; [3]): 100
Plant response rating, Kochia (kochia; [5]): 100

CCOc1cn(-c2c(Br)cccc2Oc2ncc(Cl)cn2)nn1 [Compound 84]
Plant response rating, Ragweed (ragweed; [3]): 10
Ragweed plant response rating (ragweed; [4]): 40
Plant response rating, Ryegrass, Italian (Italian ryegrass [1]; [3]): 50
Plant response rating, Ryegrass, Italian (Italian ryegrass [1]; [5]): 80
Plant response rating, Ryegrass, Italian (Italian ryegrass [2]; [3]): 0
Ryegrass, Italian plant response rating (Italian ryegrass [2]; [4]): 20
Plant response rating, Galium (galium; [3]): 100
Plant response rating, Galium (galium; [5]): 100
Plant response rating, Kochia (kochia; [3]): 100
Plant response rating, Kochia (kochia; [5]): 100

FCc1cccc(Oc2ncc(F)cn2)c1-n1cc(C(F)(F)F)cn1 [Compound 118]
Ragweed plant response rating (0 to 100 scale) (ragweed; 31 g ai/ha): 50
Plant response rating, Ragweed (ragweed; [3]): 90
Plant response rating, Ryegrass, Italian (Italian ryegrass [1]; [6]): 20
Ryegrass, Italian plant response rating (0 to 100 scale) (Italian ryegrass [2]; 31 g ai/ha): 0
Plant response rating, Ryegrass, Italian (Italian ryegrass [2]; [3]): 50
Plant response rating, Galium (galium; [6]): 70
Plant response rating, Galium (galium; [3]): 90
Plant response rating, Kochia (kochia; [6]): 60
Plant response rating, Kochia (kochia; [3]): 100

FCc1cccc(Oc2ncc(Br)cn2)c1-n1cc(C(F)(F)F)cn1 [Compound 120]
Ragweed plant response rating (0 to 100 scale) (ragweed; 31 g ai/ha): 0
Plant response rating, Ragweed (ragweed; [3]): 0
Plant response rating, Rice (rice; 31 g ai/ha): 0
Plant response rating, Rice (rice; 62 g ai/ha): 0
Plant response rating, Rice (rice; 125 g ai/ha): 15
Plant response rating, Rice (rice; 250 g ai/ha): 60
Plant response rating, Ryegrass, Italian (Italian ryegrass [1]; [6]): 0
Ryegrass, Italian plant response rating (0 to 100 scale) (Italian ryegrass [2]; 31 g ai/ha): 0
Plant response rating, Ryegrass, Italian (Italian ryegrass [2]; [3]): 30
Plant response rating, Galium (galium; [6]): 90
Plant response rating, Galium (galium; [3]): 100
Plant response rating, Kochia (kochia; [6]): 60
Plant response rating, Kochia (kochia; [3]): 90

Clc1cnc(Oc2cccc(Br)c2-n2cc(Br)nn2)nc1 [Compound 129]
Plant response rating, Ragweed (ragweed; [3]): 30
Ragweed plant response rating (ragweed; [5]): 80
Ryegrass, Italian plant response rating (Italian ryegrass [1]; [3]): 50
Plant response rating, Ryegrass, Italian (Italian ryegrass [1]; [5]): 90
Plant response rating, Ryegrass, Italian (Italian ryegrass [2]; [3]): 10
Ryegrass, Italian plant response rating (Italian ryegrass [2]; [5]): 30
Galium plant response rating (galium; [3]): 100
Plant response rating, Galium (galium; [5]): 100
Kochia plant response rating (kochia; [3]): 100
Plant response rating, Kochia (kochia; [5]): 100

FC(F)(F)Sc1cnn(-c2ccccc2Oc2ncc(Cl)cn2)c1 [Compound 132, 5-chloro-2-[2-[4-(trifluoromethylthio)-1H-pyrazol-1-yl]phenoxy]pyrimidine]
Plant response rating, Ragweed (ragweed; [3]): 0
Ragweed plant response rating (ragweed; [5]): 10
Ryegrass, Italian plant response rating (Italian ryegrass [1]; [3]): 10
Plant response rating, Ryegrass, Italian (Italian ryegrass [1]; [5]): 60
Plant response rating, Ryegrass, Italian (Italian ryegrass [2]; [3]): 30
Ryegrass, Italian plant response rating (Italian ryegrass [2]; [5]): 40
Galium plant response rating (galium; [3]): 100
Plant response rating, Galium (galium; [5]): 100
Kochia plant response rating (kochia; [3]): 90
Plant response rating, Kochia (kochia; [5]): 100

Cc1cnc(Oc2cccc(C#N)c2-n2cc(I)cn2)nc1 [Compound 136]
Plant response rating, Ragweed (ragweed; [3]): 80
Ragweed plant response rating (ragweed; [5]): 100
Ryegrass, Italian plant response rating (Italian ryegrass [1]; [3]): 30
Plant response rating, Ryegrass, Italian (Italian ryegrass [1]; [5]): 90
Plant response rating, Ryegrass, Italian (Italian ryegrass [2]; [3]): 0
Ryegrass, Italian plant response rating (Italian ryegrass [2]; [5]): 30
Galium plant response rating (galium; [3]): 80
Plant response rating, Galium (galium; [5]): 100
Kochia plant response rating (kochia; [3]): 70
Plant response rating, Kochia (kochia; [5]): 100

COc1cnn(-c2c(C#N)cccc2Oc2ncc(Cl)cn2)c1 [Compound 137]
Plant response rating, Ragweed (ragweed; [3]): 30
Ragweed plant response rating (ragweed; [5]): 60
Ryegrass, Italian plant response rating (Italian ryegrass [1]; [3]): 20
Plant response rating, Ryegrass, Italian (Italian ryegrass [1]; [5]): 80
Plant response rating, Ryegrass, Italian (Italian ryegrass [2]; [3]): 0
Ryegrass, Italian plant response rating (Italian ryegrass [2]; [5]): 20
Galium plant response rating (galium; [3]): 70
Plant response rating, Galium (galium; [5]): 100
Kochia plant response rating (kochia; [3]): 80
Plant response rating, Kochia (kochia; [5]): 100

CCCOc1cnn(-c2c(C#N)cccc2Oc2ncc(Cl)cn2)c1 [Compound 150]
Plant response rating, Ragweed (ragweed; [3]): 30
Ragweed plant response rating (ragweed; [5]): 70
Plant response rating, Rice (rice; 31 g ai/ha): 0
Plant response rating, Rice (rice; 62 g ai/ha): 0
Plant response rating, Rice (rice; 125 g ai/ha): 0
Plant response rating, Rice (rice; 250 g ai/ha): 0
Ryegrass, Italian plant response rating (Italian ryegrass [1]; [3]): 40
Plant response rating, Ryegrass, Italian (Italian ryegrass [1]; [5]): 100
Plant response rating, Ryegrass, Italian (Italian ryegrass [2]; [3]): 20
Ryegrass, Italian plant response rating (Italian ryegrass [2]; [5]): 50
Galium plant response rating (galium; [3]): 90
Plant response rating, Galium (galium; [5]): 100
Kochia plant response rating (kochia; [3]): 70
Plant response rating, Kochia (kochia; [5]): 100

FCc1cn(-c2c(F)cccc2Oc2ncc(Cl)cn2)nn1 [Compound 154]
Ragweed plant response rating (ragweed; [7]): 100
Plant response rating, Ryegrass, Italian (Italian ryegrass [1]; [8]): 90
Ryegrass, Italian plant response rating (Italian ryegrass [2]; [7]): 90
Plant response rating, Galium (galium; [8]): 100
Plant response rating, Kochia (kochia; [8]): 100

Fc1cccc(Oc2ncc(Cl)cn2)c1-n1cc(C2CC2)nn1 [Compound 155]
Ragweed plant response rating (ragweed; [7]): 90
Plant response rating, Ryegrass, Italian (Italian ryegrass [1]; [8]): 100
Ryegrass, Italian plant response rating (Italian ryegrass [2]; [7]): 60
Plant response rating, Galium (galium; [8]): 100
Plant response rating, Kochia (kochia; [8]): 100

N#Cc1cnn(-c2c(Oc3ncc(Cl)cn3)cccc2C(F)F)c1 [Compound 236]
Plant response rating, Rice (rice; 31 g ai/ha): 0
Plant response rating, Rice (rice; 62 g ai/ha): 0
Plant response rating, Rice (rice; 125 g ai/ha): 10
Plant response rating, Rice (rice; 250 g ai/ha): 20

N#Cc1cccc(Oc2ncc(Cl)cn2)c1-n1cnc(C(F)(F)F)c1 [Compound 252, 3-[(5-chloro-2-pyrimidinyl)oxy]-2-[4-(trifluoromethyl)-1H-imidazol-1-yl]benzonitrile]
Plant response rating, Ragweed (ragweed; [9]): 20
Ragweed plant response rating (0 to 100 scale) (ragweed; 125 g ai/ha): 70
Ragweed plant response rating (ragweed; [5]): 100
Plant response rating, Ryegrass, Italian (Italian ryegrass [1]; [6]): 0
Plant response rating, Ryegrass, Italian (Italian ryegrass [1]; [10]): 40
Plant response rating, Ryegrass, Italian (Italian ryegrass [1]; [5]): 70
Plant response rating, Ryegrass, Italian (Italian ryegrass [2]; [9]): 20
Ryegrass, Italian plant response rating (0 to 100 scale) (Italian ryegrass [2]; 125 g ai/ha): 20
Ryegrass, Italian plant response rating (Italian ryegrass [2]; [5]): 90
Plant response rating, Galium (galium; [6]): 60
Plant response rating, Galium (galium; [10]): 90
Plant response rating, Galium (galium; [5]): 100
Plant response rating, Kochia (kochia; [6]): 70
Plant response rating, Kochia (kochia; [10]): 100
Plant response rating, Kochia (kochia; [5]): 100

Fc1cccc(Oc2ncc(Cl)cn2)c1-n1cc(OCC(F)(F)F)cn1 [Compound 270]
Plant response rating, Ragweed (ragweed; [9]): 0
Ragweed plant response rating (0 to 100 scale) (ragweed; 125 g ai/ha): 20
Plant response rating, Rice (rice; 31 g ai/ha): 0
Plant response rating, Rice (rice; 62 g ai/ha): 0
Plant response rating, Rice (rice; 125 g ai/ha): 0
Plant response rating, Rice (rice; 250 g ai/ha): 30
Plant response rating, Ryegrass, Italian (Italian ryegrass [1]; [6]): 0
Plant response rating, Ryegrass, Italian (Italian ryegrass [1]; [10]): 30
Plant response rating, Ryegrass, Italian (Italian ryegrass [2]; [9]): 0
Ryegrass, Italian plant response rating (0 to 100 scale) (Italian ryegrass [2]; 125 g ai/ha): 10
Plant response rating, Galium (galium; [6]): 60
Plant response rating, Galium (galium; [10]): 90
Plant response rating, Kochia (kochia; [6]): 60
Plant response rating, Kochia (kochia; [10]): 70

N#Cc1cccc(Oc2ncc(Cl)cn2)c1-n1cc(-n2ccc(C(F)(F)F)n2)cn1 [Compound 284]
Ragweed plant response rating (0 to 100 scale) (ragweed; 125 g ai/ha): 0
Ragweed plant response rating (ragweed; [5]): 0
Plant response rating, Ryegrass, Italian (Italian ryegrass [1]; [10]): 20
Plant response rating, Ryegrass, Italian (Italian ryegrass [1]; [5]): 60
Ryegrass, Italian plant response rating (0 to 100 scale) (Italian ryegrass [2]; 125 g ai/ha): 20
Ryegrass, Italian plant response rating (Italian ryegrass [2]; [5]): 20
Plant response rating, Galium (galium; [10]): 20
Plant response rating, Galium (galium; [5]): 60
Plant response rating, Kochia (kochia; [10]): 60
Plant response rating, Kochia (kochia; [5]): 100
